Reference: US4436751A, “Nitrobenzyl monates antibacterial compounds” (Beecham Group Limited, priority 1980, dated 1984)
In brackets after ≈: the same amount, converted by molar mass. Read-outs that look alike come from different tables or passages of the source.

Experiments:
Format in all cases: cell-based
Strep. 2733-B = assay: Human bacteria MIC, nutrient agar with chocolated horse blood (Table 3)
Method: (§1) The values were determined by serial dilutions in nutrient agar with 5% chocolated horse blood after incubations for 18 hours at 37° C.

bacteria = assay: Antibacterial activity (summary); conditions: in words
Method: The values were determined using a two fold serial dilutions in Diagnostic Sensitivity Test Agar with an inoculum of 10^4 organisms and incubation for 18 hours at 37° C.
as §1

[1] = tested on: Treponema hyodysenteriae Navis; assay: MIC against Treponema hyodysenteriae, horse blood agar (Table 4); conditions: Brachyspira hyodysenteriae, 48 h; strain Navis; 2 days 37° C. anaerobic; read-out: Minimum Inhibitory Concentration (MIC), inhibition of β-haemolysis
Method: (§2) The value were obtained by the following method: The compound was incorporated in horse blood agar, inoculated (multi-point)with 0.001 ml of a 3 day growth of the test organism from base of a blood slope (+1 ml foetal calf serum) and incubated at 37° C. for 2 days under anaerobic conditions. The MIC was taken as the lowest concentration to inhibit β-haemolysis.

[2] = tested on: Treponema hyodysenteriae P23; assay: as above; conditions: Brachyspira hyodysenteriae, 48 h; strain P23; 2 days 37° C. anaerobic; read-out: Minimum Inhibitory Concentration (MIC), inhibition of β-haemolysis
Method: as §2

[3] = tested on: Treponema hyodysenteriae B10; assay: as above; conditions: Brachyspira hyodysenteriae, 48 h; strain B10; 2 days 37° C. anaerobic; read-out: Minimum Inhibitory Concentration (MIC), inhibition of β-haemolysis
Method: as §2

[4] = tested on: Treponema hyodysenteriae S77/10; assay: as above; conditions: Brachyspira hyodysenteriae, 48 h; strain S77/10; 2 days 37° C. anaerobic; read-out: Minimum Inhibitory Concentration (MIC), inhibition of β-haemolysis
Method: as §2

[5] = tested on: Treponema hyodysenteriae S77/2; assay: as above; conditions: Brachyspira hyodysenteriae, 48 h; strain S77/2; 2 days 37° C. anaerobic; read-out: Minimum Inhibitory Concentration (MIC), inhibition of β-haemolysis
Method: as §2

Strep. 641848-C = assay: Human bacteria MIC, nutrient agar with chocolated horse blood (Table 3)
Method: as §1

mycoplasma organisms = assay: Anti-mycoplasmal activity (summary); conditions: in words
Method: The values were determines in Friis broth solidified with 0.9% agarose. The inoculum was 10^3 to 10^5 C.F.U. and the MIC's were recorded after 6 days incubation at 37° C.

M1 -suiphneumoniae = assay: Anti-mycoplasmal activity relative to O-nitrobenzyl monate A
[6] = tested on: Haemophilus influenzae Wy21; assay: Human bacteria MIC, nutrient agar with chocolated horse blood (Table 3); conditions: nutrient agar 5% chocolated horse blood, 18 hours 37° C.
Method: as §1

[7] = Strep. 2733-B, nutrient agar 5% chocolated horse blood, 18 hours 37° C., read-out: MIC
[8] = Strep. 641848-C, nutrient agar 5% chocolated horse blood, 18 hours 37° C., read-out: MIC

## C/C(=C\C(=O)OCc1ccccc1[N+](=O)[O-])CC1OCC(CC2OC2C(C)C(C)O)C(O)C1O (stereo not drawn) [C, O--nitrobenzyl monate A, reference compound]
Strep. 2733-B; 18 h
  MIC: 2.5 µg/mL (≈ 5.21 µM)

## C/C(=C\C(=O)OCc1ccc([N+](=O)[O-])cc1)CC1OCC(CC2OC2C(C)C(C)O)C(O)C1O (stereo not drawn) [Example 1, p-nitrobenzyl monate A]
bacteria
  antibacterial activity as compared to o-nitrobenzyl monate A: outstanding antibacterial activity
[1]
  MIC: 2.5 µg/mL (≈ 5.21 µM)
[2]
  MIC: 2.5 µg/mL (≈ 5.21 µM)
[3]
  MIC: 2.5 µg/mL (≈ 5.21 µM)
[4]
  MIC: 2.5 µg/mL (≈ 5.21 µM)
[5]
  MIC: 2.5 µg/mL (≈ 5.21 µM)
Strep. 641848-C; 18 h
  MIC: 0.25 µg/mL (≈ 0.521 µM)

## C/C(=C\C(=O)OCc1cccc([N+](=O)[O-])c1)CC1OCC(CC2OC2C(C)C(C)O)C(O)C1O (stereo not drawn) [Example 2, m-nitrobenzyl monate A]
Mycoplasma organisms
  anti-mycoplasmal activity: outstanding anti-mycoplasmal activity
Strep. 2733-B; [7]
  MIC: 10 µg/mL (≈ 20.9 µM)
M1 -suiphneumoniae
  times more active than O-nitrobenzyl monate A: approximately 20 times

## C/C(=C\C(=O)OC(C)c1cccc([N+](=O)[O-])c1)CC1OCC(CC2OC2C(C)C(C)O)C(O)C1O (stereo not drawn) [Example 3, 1-(m-nitrophenyl)ethyl monate A]
Strep. 641848-C; [8]
  MIC: 2.5 µg/mL (≈ 5.07 µM)

## C/C(=C\C(=O)OC(C)c1ccc([N+](=O)[O-])cc1)CC1OCC(CC2OC2C(C)C(C)O)C(O)C1O (stereo not drawn) [Example 4, 1-(p-nitrophenyl)ethyl monate A]
Strep. 2733-B; [7]
  MIC: 1 µg/mL (≈ 2.03 µM)
Strep. 641848-C; [8]
  MIC: 1 µg/mL (≈ 2.03 µM)

## C/C(=C\C(=O)OCc1cccc([N+](=O)[O-])c1)CC1OCC(C/C=C/C(C)C(C)O)C(O)C1O (stereo not drawn) [Example 5, m-nitrobenzyl monate C]
Strep. 641848-C; 18 h
  MIC: 5 µg/mL (≈ 10.8 µM)

## C/C(=C\C(=O)OCc1cc([N+](=O)[O-])cc([N+](=O)[O-])c1)CC1OCC(CC2OC2C(C)C(C)O)C(O)C1O (stereo not drawn) [Example 6, 3,5-dinitrobenzyl monate A]
Strep. 2733-B; 18 h
  MIC: 0.5 µg/mL (≈ 0.953 µM)
[6]
  MIC: 0.5 µg/mL (≈ 0.953 µM)
Strep. 641848-C; 18 h
  MIC: 0.5 µg/mL (≈ 0.953 µM)

## C/C(=C\C(=O)OCc1cc([N+](=O)[O-])cc([N+](=O)[O-])c1C)CC1OCC(CC2OC2C(C)C(C)O)C(O)C1O (stereo not drawn) [Example 7, 3,5-dinitro-2-methylbenzyl monate A]
Strep. 2733-B; 18 h
  MIC: 2.5 µg/mL (≈ 4.64 µM)
[6]
  MIC: 1 µg/mL (≈ 1.86 µM)
Strep. 641848-C; 18 h
  MIC: 1 µg/mL (≈ 1.86 µM)

## C/C(=C\C(=O)OCc1cccc([N+](=O)[O-])c1C)CC1OCC(CC2OC2C(C)C(C)O)C(O)C1O (stereo not drawn) [Example 8, 2-methyl-3-nitrobenzyl monate A]
Strep. 641848-C; [8]
  MIC: 0.5 µg/mL (≈ 1.01 µM)

## C/C(=C\C(=O)OCc1ccc([N+](=O)[O-])c([N+](=O)[O-])c1)CC1OCC(CC2OC2C(C)C(C)O)C(O)C1O (stereo not drawn) [Example 9, 3,4-dinitrobenzyl monate A]
Strep. 2733-B; 18 h
  MIC: 2.5 µg/mL (≈ 4.77 µM)
[6]
  MIC: 0.25 µg/mL (≈ 0.477 µM)
Strep. 641848-C; 18 h
  MIC: 2.5 µg/mL (≈ 4.77 µM)

## C/C(=C\C(=O)OCc1ccc([N+](=O)[O-])cc1[N+](=O)[O-])CC1OCC(CC2OC2C(C)C(C)O)C(O)C1O (stereo not drawn) [Example 10, 2,4-dinitrobenzyl monate A]
Strep. 2733-B; 18 h
  MIC: 2.5 µg/mL (≈ 4.77 µM)
[6]
  MIC: 0.5 µg/mL (≈ 0.953 µM)
Strep. 641848-C; 18 h
  MIC: 2.5 µg/mL (≈ 4.77 µM)

## C/C(=C\C(=O)OCc1ccc([N+](=O)[O-])cc1Cl)CC1OCC(CC2OC2C(C)C(C)O)C(O)C1O (stereo not drawn) [Example 11, 2-chloro-4-nitrobenzyl monate A]
Strep. 2733-B; [7]
  MIC: 1 µg/mL (≈ 1.95 µM)
Strep. 641848-C; [8]
  MIC: 1 µg/mL (≈ 1.95 µM)
